Source: patent US20210094933A1, “RAPAFUCIN DERIVATIVE COMPOUNDS AND METHODS OF USE THEREOF” (The Johns Hopkins University, priority 2019, published 2021)
Numbered stars: 1 amine (or outer) side, 2 acyl side, 3 side chain; on linkers, the order of the positions; unused ones are H or OH. Bridge positions count the residues as written; N and C are the ends. Square brackets hold non-standard residues; d marks the D form. Peptide text beside a SMILES is read from it. * marks the point of attachment. X3 = COc1ccc(CC[C@H](O[*:2])c2cccc(OCC(=O)[*:1])c2)cc1OC; X2 = CN(CCC=CC(=O)OCC(C)(C)C(=O)C(=O)[*:2])[*:1]; 2Nal = N[C@@H](Cc1ccc2ccccc2c1)C(=O)O; dNMeNle = CCCC[C@@H](NC)C(=O)O; dNMeS = CN[C@H](CO)C(=O)O; dPip = O=C(O)[C@H]1CCCCN1; Sar = CNCC(=O)O; tBu = CC(C)(C)*

Experiments:
Type in all cases: cell-based
H929 = assay: Cell proliferation assay (Prolif.), IC50 relative to DMSO control; details: H929 cells; for Prolif, H929: IC50 class relative to DMSO control
Method: (§1) Cell Proliferation Assay (Prolif.) Guo et al. (2018) Nat. Chem. 11:254-63. Specific cell lines are indicated in each assay and cultured in complete growth media. Activity is scored according to the IC50 values relative to DMSO control. “Low” indicates an IC50 greater than 600 nM, “Medium” indicates an IC50 between 300 nM and 600 nM “High” indicates an IC50 less than 300 nM. “Rel.Uptake” refers to uptake activity characterization relative to a single concentration assay. “Low” indicates a response greater than 0.6 times the activity relative to DMSO, “Medium” indicates a response between 0.6 and 0.3 times the activity relative to DMSO, “High” indicates a response less than 0.3 times the activity relative to DMSO.

[1] = Cell proliferation assay, single concentration, response relative to DMSO; cell line indicated in each table
Method: as §1

[2] = Nucleoside uptake assay, single concentration (Rel.Uptake), response relative to DMSO; cell line indicated in each table; details: 293 T cells, nucleoside uptake at single concentration
Method: Nucleoside Uptake Assay (uptake). Nuceloside uptake assays were performed with using 3H-Thymidine as described in Guo et al. (2018) Nat. Chem, 11:254-63. Specific cell lines are indicated in each assay and cultured in complete growth media. Activity is scored according to the IC50 values relative to DMSO control. “Low” indicates an IC50 greater than 600 nM, “Medium” indicates an IC50 between 300 nM and 600 nM “High” indicates an IC50 less than 300 nM. “Rel.Uptake” refers to uptake activity characterization relative to a single concentration assay. “Low” indicates a response greater than 0.6 times the activity relative to DMSO, “Medium” indicates a response between 0.6 and 0.3 times the activity relative to DMSO, “High” indicates a response less than 0.3 times the activity relative to DMSO.

Row | SMILES | Prolif. H929 (H929; class relative to DMSO control) | Rel. Prolif., NCI-H929 ([1]; NCI-H929 cells) | Prolif, H929 (H929) | Rel. Uptake, 293 T [2] | Rel. Prolif., A549 ([1]; A549 cells)
1 | COc1ccc(CC[C@H]2OC(=O)[C@@H]3CCCCN3C(=O)C(=O)C(C)(C)COC(=O)C=CCCN(C)C(=O)[C@@H](Cc3ccccc3)NC(=O)CN(C)C(=O)[C@@H](Cc3ccccc3)NC(=O)[C@H](Cc3ccc(OC(=O)N4CCOCC4)cc3)N(C)C(=O)COc3cc(F)cc2c3)cc1OC [Compound 868] | low | low |  |  | 
2 | COc1cc(CC[C@H]2OC(=O)[C@@H]3CCCCN3C(=O)C(=O)C(C)(C)COC(=O)C=CCCN(C)C(=O)[C@@H](Cc3ccccc3)NC(=O)CN(C)C(=O)[C@@H](Cc3ccccc3)NC(=O)[C@H](Cc3ccc(O)cc3)N(C)C(=O)COc3cccc2c3)cc(F)c1OC [Compound 1569] |  |  | low | low | 
3 | COc1ccc(CC[C@H]2OC(=O)[C@@H]3CCCCN3C(=O)C(=O)C(C)(C)COC(=O)C=CCCN(C)C(=O)[C@@H](Cc3ccccc3)NC(=O)CN(C)C(=O)[C@@H](Cc3ccccc3)NC(=O)[C@H](Cc3ccc(O)cc3)N(C)C(=O)COc3cc(F)cc2c3)cc1OC [Compound 1576] |  |  | medium | medium | 
4 | COc1ccc(CC[C@H]2OC(=O)[C@@H]3CCCCN3C(=O)C(=O)C(C)(C)COC(=O)C=CCCN(C)C(=O)[C@@H](Cc3ccccc3)NC(=O)CN(C)C(=O)[C@@H](Cc3ccccc3)NC(=O)[C@H](Cc3ccc(O)cc3)N(C)C(=O)COc3cncc2c3)cc1OC [Compound 1580] |  |  | low | low | 
5 | COc1cc(CC[C@H]2OC(=O)[C@@H]3CCCCN3C(=O)C(=O)C(C)(C)COC(=O)C=CCCN(C)C(=O)[C@@H](Cc3ccccc3)NC(=O)CN(C)C(=O)[C@@H](Cc3ccccc3)NC(=O)[C@H](Cc3ccc(O)cc3)N(C)C(=O)COc3cccc2c3)cc(O)c1OC [Compound 1567] |  |  | medium | medium | 
6 | COc1cc(F)c(CC[C@H]2OC(=O)[C@@H]3CCCCN3C(=O)C(=O)C(C)(C)COC(=O)C=CCCN(C)C(=O)[C@@H](Cc3ccccc3)NC(=O)CN(C)C(=O)[C@@H](Cc3ccccc3)NC(=O)[C@H](Cc3ccc(O)cc3)N(C)C(=O)COc3cccc2c3)cc1OC [Compound 1570] |  |  | medium | medium | 
7 | COc1ccc(CC[C@H]2OC(=O)[C@@H]3CCCCN3C(=O)C(=O)C(C)(C)COC(=O)C=CCCN(C)C(=O)[C@@H](Cc3ccccc3)NC(=O)CN(C)C(=O)[C@@H](Cc3ccccc3)NC(=O)[C@H](Cc3ccc(O)cc3)N(C)C(=O)COc3cccc2c3)c(O)c1OC [Compound 1584] |  |  | low | low | 
8 | CCCC[C@@H]1C(=O)N[C@@H](Cc2ccc3ccccc3c2)C(=O)N(C)[C@H](COC(C)(C)C)C(=O)NCC(=O)N(C)CCC=CC(=O)OCC(C)(C)C(=O)C(=O)N2CCCC[C@@H]2C(=O)O[C@@H](CCc2ccc(OC)c(OC)c2)c2cccc(c2)OCC(=O)N(C)CC(=O)N1C [Compound 1] ([Sar][dNMeNle][2Nal][dNMeS](tBu)G[X2][dPip]; linker N-C via X3) |  |  |  |  | low
9 | COc1ccc(CC[C@H]2OC(=O)[C@@H]3CCCCN3C(=O)C(=O)C(C)(C)COC(=O)C=CCCN(C)C(=O)[C@@H]3CCCN3C(=O)[C@H](COC(C)(C)C)N(C)C(=O)[C@H](c3ccccc3)NC(=O)[C@H](C)N(C)C(=O)COc3cc(F)cc2c3)cc1OC [Compound 1596] |  |  |  | Low (“Low” indicates a response greater than 0.6 times the activity relative to DMSO) | 
10 | COc1ccc(CC[C@H]2OC(=O)[C@@H]3CCCCN3C(=O)C(=O)C(C)(C)COC(=O)C=CCCN(C)C(=O)[C@@H](Cc3ccccc3)NC(=O)CN(C)C(=O)[C@@H](Cc3ccccc3)NC(=O)[C@H](Cc3ccc(O)cc3)N(C)C(=O)COc3cccc2c3F)cc1OC [Compound 1579] |  |  | medium | medium | 
11 | COc1ccc(CC[C@H]2OC(=O)[C@@H]3CCCCN3C(=O)C(=O)C(C)(C)COC(=O)C=CCCN(C)C(=O)[C@@H](Cc3ccccc3)NC(=O)CN(C)C(=O)[C@@H](Cc3ccccc3)NC(=O)[C@H](Cc3ccc(O)cc3)N(C)C(=O)COc3cc2ccc3F)cc1OC [Compound 1578] |  |  | low | low | 
12 | COc1cc(CC[C@H]2OC(=O)[C@@H]3CCCCN3C(=O)C(=O)C(C)(C)COC(=O)C=CCCN(C)C(=O)[C@@H](Cc3ccccc3)NC(=O)CN(C)C(=O)[C@@H](Cc3ccccc3)NC(=O)[C@H](Cc3ccc(O)cc3)N(C)C(=O)COc3cccc2c3)cc(OC)c1OC [Compound 1566] |  |  | medium | medium | 
13 | COc1ccc(OC)c(OC)c1CC[C@H]1OC(=O)[C@@H]2CCCCN2C(=O)C(=O)C(C)(C)COC(=O)C=CCCN(C)C(=O)[C@@H](Cc2ccccc2)NC(=O)CN(C)C(=O)[C@@H](Cc2ccccc2)NC(=O)[C@H](Cc2ccc(O)cc2)N(C)C(=O)COc2cccc1c2 [Compound 1583] |  |  | low | low | 
14 | COc1ccc(CC[C@H]2OC(=O)[C@@H]3CN(C)CCN3C(=O)C(=O)C(C)(C)COC(=O)C=CCCN(C)C(=O)[C@@H](Cc3ccccc3)NC(=O)CN(C)C(=O)[C@@H](Cc3ccccc3)NC(=O)[C@H](Cc3ccc(O)cc3)N(C)C(=O)COc3cccc2c3)cc1OC [Compound 1574] |  |  | low | low | 
15 | COc1cc(OC)c(OC)cc1CC[C@H]1OC(=O)[C@@H]2CCCCN2C(=O)C(=O)C(C)(C)COC(=O)C=CCCN(C)C(=O)[C@@H](Cc2ccccc2)NC(=O)CN(C)C(=O)[C@@H](Cc2ccccc2)NC(=O)[C@H](Cc2ccc(O)cc2)N(C)C(=O)COc2cccc1c2 [Compound 1581] |  |  | medium | medium | 
16 | COc1ccc(CC[C@H]2OC(=O)[C@@H]3CCCCN3C(=O)C(=O)C(C)(C)COC(=O)C=CCCN(C)C(=O)[C@@H](Cc3ccccc3)NC(=O)CN(C)C(=O)[C@@H](Cc3ccccc3)NC(=O)[C@H](Cc3ccc(O)cc3)N(C)C(=O)COc3cccc2c3)c(F)c1OC [Compound 1571] |  |  | low | low | 
17 | COc1ccc(CC[C@H]2OC(=O)[C@@H]3CN(C(=O)OCC4c5ccccc5-c5ccccc54)CCN3C(=O)C(=O)C(C)(C)COC(=O)C=CCCN(C)C(=O)[C@@H](Cc3ccccc3)NC(=O)CN(C)C(=O)[C@@H](Cc3ccccc3)NC(=O)[C@H](Cc3ccc(O)cc3)N(C)C(=O)COc3cccc2c3)cc1OC [Compound 1572] |  |  | low | low | 
18 | COc1ccc(CC[C@H]2OC(=O)[C@@H]3CCCCN3C(=O)C(=O)C(C)(C)COC(=O)C=CCCN(C)C(=O)[C@@H]3CCCN3C(=O)[C@H](COC(C)(C)C)N(C)C(=O)[C@@H](c3ccccc3)NC(=O)[C@H](C)N(C)C(=O)COc3cc(F)cc2c3)cc1OC [Compound 1595] |  |  |  | Low (“Low” indicates a response greater than 0.6 times the activity relative to DMSO) | 
19 | COc1ccc(CC[C@H]2OC(=O)[C@@H]3CNCCN3C(=O)C(=O)C(C)(C)COC(=O)C=CCCN(C)C(=O)[C@@H](Cc3ccccc3)NC(=O)CN(C)C(=O)[C@@H](Cc3ccccc3)NC(=O)[C@H](Cc3ccc(O)cc3)N(C)C(=O)COc3cccc2c3)cc1OC [Compound 1573] |  |  | low | low | 
20 | COc1cc(CC[C@H]2OC(=O)[C@@H]3CCCCN3C(=O)C(=O)C(C)(C)COC(=O)C=CCCN(C)C(=O)[C@@H](Cc3ccccc3)NC(=O)CN(C)C(=O)[C@@H](Cc3ccccc3)NC(=O)[C@H](Cc3ccc(O)cc3)N(C)C(=O)COc3cccc2c3)c(OC)c(OC)c1 [Compound 1582] |  |  | low | low | 
21 | COc1ccc(CC[C@H]2OC(=O)[C@@H]3CCCCN3C(=O)C(=O)C(C)(C)COC(=O)C=CCCN(C)C(=O)[C@@H](Cc3ccccc3)NC(=O)CN(C)C(=O)[C@@H](Cc3ccccc3)NC(=O)[C@H](Cc3ccc(O)cc3)N(C)C(=O)COc3cccc2c3)c(OC)c1OC [Compound 1577] |  |  | medium | medium | 
22 | COc1ccc(CC[C@H]2OC(=O)[C@@H]3CCCCN3C(=O)C(=O)C(C)(C)COC(=O)C=CCCN(C)C(=O)[C@@H](Cc3ccccc3)NC(=O)CN(C)C(=O)[C@@H](Cc3ccccc3)NC(=O)[C@H](Cc3ccc(O)cc3)N(C)C(=O)COc3ccc(F)c2c3)cc1OC [Compound 1575] |  |  | low | low | 
23 | COc1cc(O)c(CC[C@H]2OC(=O)[C@@H]3CCCCN3C(=O)C(=O)C(C)(C)COC(=O)C=CCCN(C)C(=O)[C@@H](Cc3ccccc3)NC(=O)CN(C)C(=O)[C@@H](Cc3ccccc3)NC(=O)[C@H](Cc3ccc(O)cc3)N(C)C(=O)COc3cccc2c3)cc1OC [Compound 1568] |  |  | low | low | 
